According to patent publication US20060069132A1, “Azolecarboxamide herbicides” (priority 2004, published 2006):

Experiments:
morningglory = assay: Test C pre-/postemergence herbicide test; assay type: in vivo, Ipomoea coccinea; set-up: key to Plant response rating, Morningglory: 0 = no effect, 100 = complete control; settings: preemergence
In short: (§1)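 Greenhouse-grown plants were evaluated visually 12 to 14 days after treatment, with 100 meaning complete control and 0 no effect. Application was preemergence, or postemergence at 2 to 18 cm.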

woolly cupgrass = assay: Test C pre-/postemergence herbicide test; assay type: in vivo, Eriochloa villosa; settings: preemergence
In short: as §1

eastern black nightshade = assay: Test C pre-/postemergence herbicide test; assay type: in vivo, Solanum ptycanthum; settings: preemergence
In short: as §1

[1] = test system: common (oilseed) sunflower; assay: Test C pre-/postemergence herbicide test; assay type: in vivo, Helianthus annuus; settings: preemergence
In short: as §1

kochia = assay: Test C pre-/postemergence herbicide test; assay type: in vivo, Kochia scoparia; settings: preemergence
In short: as §1

giant foxtail = assay: Test C pre-/postemergence herbicide test; assay type: in vivo, Setaria faberi; settings: preemergence
In short: as §1

barnyardgrass = assay: Test C flooded paddy test; assay type: in vivo, Echinochloa crus-galli; settings: for Plant response rating, Barnyardgrass: 500 g ai/ha, visual rating after 12 to 14 days
In short: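 Greenhouse test with a 12–14 day hold after application and visual comparison with controls. Emerged plants were 1- to 4-leaf stage (2–18 cm) when sprayed postemergence, and the paddy barnyardgrass was at 2 leaves under flooded conditions. 100 = complete control.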

rice = assay: Test B pre-/postemergence herbicide test; assay type: in vivo, Oryza sativa; settings: preemergence
In short: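 Species tested were Echinochloa crus-galli, Ipomoea coccinea, Xanthium strumarium and Oryza sativa, treated both before emergence and at the 1- to 4-leaf stage; rice and barnyardgrass were also tested under flooding at 2 leaves. Greenhouse incubation lasted 13–15 days before visual 0–100 scoring.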

pigweed = assay: Test C pre-/postemergence herbicide test; assay type: in vivo, Amaranthus retroflexus; settings: preemergence
In short: as §1

[2] = 125 g ai/ha, scale 0 (no effect) to 100 (complete control), visual, 12 to 14 days
[3] = 62 g ai/ha, scale 0 to 100 (0 no effect, 100 complete control)
[4] = 250 g ai/ha, scale of 0 to 100, 0 is no effect, 100 is complete control
[5] = scale 0 to 100 (0 no effect, 100 complete control)
[6] = 500 g ai/ha, scale 0 to 100 (0 no effect, 100 complete control), visual, 12 to 14 days

CCC(=NO)c1cccc(NC(=O)c2cc(C(C)(C)C)nn2C)c1 [Compound 118]
Plant response rating, Morningglory (morningglory; 31 g ai/ha, scale 0 to 100): 0 | Plant response rating (0 = no effect, 100 = complete control), Morningglory (morningglory; 62 g ai/ha): 20 | Plant response rating, Morningglory (morningglory; [2]): 30 | Plant response rating, Cupgrass, Woolly (woolly cupgrass; 31 g ai/ha, scale 0 to 100): 0 | Plant response rating (0 = no effect, 100 = complete control), Cupgrass, Woolly (woolly cupgrass; 62 g ai/ha): 0 | Plant response rating, Cupgrass, Woolly (woolly cupgrass; [2]): 0 | Plant response rating, Nightshade (eastern black nightshade; 31 g ai/ha, scale 0 to 100): 60 | Plant response rating (0 = no effect, 100 = complete control), Nightshade (eastern black nightshade; 62 g ai/ha): 100 | Plant response rating, Nightshade (eastern black nightshade; [2]): 100 | Plant response rating, Sunflower ([1]; 31 g ai/ha, scale 0 to 100): 0 | Plant response rating (0 = no effect, 100 = complete control), Sunflower ([1]; 62 g ai/ha): 0 | Plant response rating, Sunflower [1, 2]: 20 | Plant response rating, Kochia (kochia; 31 g ai/ha, scale 0 to 100): 10 | Plant response rating (0 = no effect, 100 = complete control), Kochia (kochia; 62 g ai/ha): 20 | Plant response rating, Kochia (kochia; [2]): 20 | Plant response rating, Foxtail, Giant (giant foxtail; 31 g ai/ha, scale 0 to 100): 0 | Plant response rating (0 = no effect, 100 = complete control), Foxtail, Giant (giant foxtail; 62 g ai/ha): 0 | Plant response rating, Foxtail, Giant (giant foxtail; [2]): 10 | Barnyardgrass plant response rating (barnyardgrass; [3]): 0 | Barnyardgrass plant response rating (barnyardgrass; 125 g ai/ha, scale of 0 to 100, 0 is no effect, 100 is complete control): 20 | Barnyardgrass plant response rating (barnyardgrass; [4]): 20 | Plant response rating, Barnyardgrass (barnyardgrass; [5]): 50 | Plant response rating, Rice (rice; 125 g ai/ha, 0 to 100 scale, 0 is no effect, 100 is complete control): 0 | Plant response rating, Pigweed (pigweed; 31 g ai/ha, scale 0 to 100): 20 | Plant response rating (0 = no effect, 100 = complete control), Pigweed (pigweed; 62 g ai/ha): 70 | Plant response rating, Pigweed (pigweed; [2]): 90

CCN1N=C(C(C)(C)C)CC1C(=O)Nc1cc(C(=O)N2CCCC2)ccc1F (racemic) [Compound 309]
Plant response rating, Morningglory (morningglory; 62 g ai/ha, scale 0 to 100): 0 | Plant response rating, Morningglory (morningglory; [2]): 5 | Plant response rating, Morningglory (morningglory; 250 g ai/ha, scale 0-100): 5 | Plant response rating, Morningglory (morningglory; [6]): 40 | Plant response rating, Cupgrass, Woolly (woolly cupgrass; 62 g ai/ha, scale 0 to 100): 40 | Plant response rating, Cupgrass, Woolly (woolly cupgrass; [2]): 70 | Plant response rating, Cupgrass, Woolly (woolly cupgrass; 250 g ai/ha, scale 0-100): 90 | Plant response rating, Cupgrass, Woolly (woolly cupgrass; [6]): 100 | Plant response rating, Nightshade (eastern black nightshade; 62 g ai/ha, scale 0 to 100): 70 | Plant response rating, Nightshade (eastern black nightshade; [2]): 80 | Plant response rating, Nightshade (eastern black nightshade; 250 g ai/ha, scale 0-100): 100 | Plant response rating, Nightshade (eastern black nightshade; [6]): 100 | Plant response rating, Sunflower ([1]; 62 g ai/ha, scale 0 to 100): 0 | Plant response rating, Sunflower ([1]; 250 g ai/ha, scale 0-100): 5 | Plant response rating, Sunflower [1, 6]: 60 | Plant response rating, Kochia (kochia; 62 g ai/ha, scale 0 to 100): 100 | Plant response rating, Kochia (kochia; [2]): 100 | Plant response rating, Kochia (kochia; 250 g ai/ha, scale 0-100): 100 | Plant response rating, Kochia (kochia; [6]): 100 | Plant response rating, Foxtail, Giant (giant foxtail; 62 g ai/ha, scale 0 to 100): 70 | Plant response rating, Foxtail, Giant (giant foxtail; [2]): 80 | Plant response rating, Foxtail, Giant (giant foxtail; 250 g ai/ha, scale 0-100): 90 | Plant response rating, Foxtail, Giant (giant foxtail; [6]): 100 | Barnyardgrass plant response rating (barnyardgrass; [3]): 50 | Barnyardgrass plant response rating (barnyardgrass; 125 g ai/ha, scale 0 to 100 (0 no effect, 100 complete control)): 60 | Barnyardgrass plant response rating (barnyardgrass; [4]): 85 | Plant response rating, Barnyardgrass (barnyardgrass; [5]): 90 | Rice plant response rating (0 to 100 scale) (rice; 125 g ai/ha, 0 = no effect, 100 = complete control): 70 | Plant response rating, Rice (rice; 500 g ai/ha, visual rating, 0 = no effect, 100 = complete control): 90 | Plant response rating, Pigweed (pigweed; 62 g ai/ha, scale 0 to 100): 80 | Plant response rating, Pigweed (pigweed; [2]): 100 | Plant response rating, Pigweed (pigweed; 250 g ai/ha, scale 0-100): 100 | Plant response rating, Pigweed (pigweed; [6]): 100
